Laboratory results as given in patent publication US20020002171A1, “Materials and methods for killing nematodes and nematode eggs” (priority 2000, published 2002).

Test system: Caenorhabditis elegans
Assay: C. elegans L1 nematicidal dose response in 96-well plates, 5 day visual score (Example 2; same procedure for Example 7, Table 3)
Assay type: in vivo
Parameters: key to 5 Day Visual Score V1 / 5 Day Visual Score V2 / 5 Day Visual Score V3 / 5 Day Visual Score V4 / 5 Day Visual Score V6 / 5 Day Visual Score V5 / Initial HTS Run Visual Score / Follow-up HTS Run Visual Score: Dead: only stiff L1s (no movement); Dead (L4): worms are dead, but at a later larval stage; majority of worms are L1 (based on size) worms move when plate is tapped; majority of worms are L2 (based on size); majority of worms are L3 (based on size); majority of worms are L4 (based on size); AD: majority of worms are adult; #AD: 5 adult worms or less; B!: sterile (0-25 progeny); B: low broodsize (25-100 progeny); ˜B: moderate broodsize (100-250 progeny); <: reduced broodsize (250-500 progeny); OK: no effect (˜1000+ progeny)
Procedure, shortened: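 L1 larvae, 20 per well in NGM with 1% E. coli HB101 and antibiotic/antimycotic, exposed to six 3-fold dilutions from 70 μM down to 0.3 μM (1.4% DMSO at top). Held at 20° C; viability scored visually under 100× dissecting microscope on day 5.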

[1] = dose response, dilution V1, 5 day
[2] = dose response, dilution V2, 5 day
[3] = dose response, dilution V4, 5 day
[4] = dose response, dilution V5, 5 day
[5] = dose response, dilution V6, 5 day
[6] = dose response, dilution V2, day 5
[7] = dose response, dilution V3, day 5
[8] = dose response, dilution V4, day 5
[9] = dose response, dilution V5, day 5
[10] = dose response, dilution V6, day 5
[11] = dose response, dilution V1, day 5
[12] = 0.3 μM, C. elegans L1, scored day 5
[13] = dose response, dilution V3, 5 day

SMILES | Follow-up HTS Run % Run [%] | Follow-up HTS Run mOD [mOD] | Initial HTS Run % Run [%] | Initial HTS Run Visual Score | Initial HTS Run mOD [mOD] | 5 Day Visual Score V2 [6] | 5 Day Visual Score V3 [7] | 5 Day Visual Score V4 [8] | 5 Day Visual Score V5 [9] | 5 Day Visual Score V6 [10] | Follow-up HTS Run Visual Score | 5 Day Visual Score V1 [11] | also measured
CCOC(=O)CCN(Cc1ccccc1)c1nc(NCc2ccc(C(F)(F)F)cc2)ns1 [compound 313] | 106 | 170 | 97 | L2 - (Dead L3) | 107 | – | – | – | – | – | – | – | 5 Day Visual Score V1 [1]: Dead(L2/L3); 5 Day Visual Score V2 [2]: Dead(L3); 5 Day Visual Score V4 [3]: < (reduced broodsize (250-500 progeny)); 5 Day Visual Score V5 [4]: OK (no effect (˜1000+ progeny)); 5 Day Visual Score V6 [5]: OK (no effect (˜1000+ progeny))
CCN(CC)C(=O)C1CCCN(c2nc(NCc3ccccc3)ns2)C1 (stereo not drawn) [compound 265] | 111 | 178 | 108 | – | 119 | OK (no effect (˜1000+ progeny)) | OK (no effect (˜1000+ progeny)) | OK (no effect (˜1000+ progeny)) | OK (no effect (˜1000+ progeny)) | OK (no effect (˜1000+ progeny)) | – | – | –
CCCCN(Cc1ccccc1)c1nc(NCc2ccc(F)cc2F)ns1 [compound 291] | 137 | 220 | 136 | – | 150 | OK (no effect (˜1000+ progeny)) | OK (no effect (˜1000+ progeny)) | OK (no effect (˜1000+ progeny)) | OK (no effect (˜1000+ progeny)) | OK (no effect (˜1000+ progeny)) | B! (sterile (0-25 progeny)) | L4#AD/B! | –
CCCCC(CC)CN(CC(CC)CCCC)c1nc(NCc2ccc(C(F)(F)F)cc2)ns1 (stereo not drawn) [compound 307] | 110 | 177 | 100 | L4/AD/B | 110 | – | OK (no effect (˜1000+ progeny)) | OK (no effect (˜1000+ progeny)) | OK (no effect (˜1000+ progeny)) | OK (no effect (˜1000+ progeny)) | B! (sterile (0-25 progeny)) | Dead | –
CCOc1cc(CCNc2nsc(N3CCN(c4ccc(F)cc4)CC3)n2)ccc1OC [compound 267] | 99 | 160 | 94 | Dead | 103 | L1 | < (reduced broodsize (250-500 progeny)) | OK (no effect (˜1000+ progeny)) | OK (no effect (˜1000+ progeny)) | OK (no effect (˜1000+ progeny)) | Dead | Dead | –
CCCCCCCCCCNc1nsc(N(C)CCc2ccc(OC)c(OC)c2)n1 [compound 285] | 131 | 211 | 149 | Dead | 164 | Dead | – | ˜B (moderate broodsize (100-250 progeny)) | OK (no effect (˜1000+ progeny)) | OK (no effect (˜1000+ progeny)) | Dead | Dead | –
CCCCCCCCCCNc1nsc(N(CC)Cc2ccccc2)n1 [compound 280] | 122 | 196 | 144 | Dead | 158 | Dead | ˜B (moderate broodsize (100-250 progeny)) | OK (no effect (˜1000+ progeny)) | OK (no effect (˜1000+ progeny)) | OK (no effect (˜1000+ progeny)) | Dead | Dead | –
CC1(C)CC(O)CC(C)(CNc2nsc(N3CCN(c4ccc(F)cc4)CC3)n2)C1 (stereo not drawn) [compound 244] | 104 | 167 | 125 | Dead | 138 | Dead | < (reduced broodsize (250-500 progeny)) | OK (no effect (˜1000+ progeny)) | OK (no effect (˜1000+ progeny)) | OK (no effect (˜1000+ progeny)) | Dead | Dead | –
CCCCCCCCCCCCCCCCCCN(C)c1nc(N2CCN(c3c(C)cccc3C)CC2)ns1 [compound 229] | 81 | 130 | 125 | Dead | 137 | – | #AD/˜B | OK (no effect (˜1000+ progeny)) | OK (no effect (˜1000+ progeny)) | OK (no effect (˜1000+ progeny)) | 5AD/B | Dead | –
OCC1CCCN(c2nc(NCc3ccccc3)ns2)C1 (stereo not drawn) [compound 263] | 104 | 167 | 110 | – | 121 | ˜B (moderate broodsize (100-250 progeny)) | OK (no effect (˜1000+ progeny)) | OK (no effect (˜1000+ progeny)) | OK (no effect (˜1000+ progeny)) | OK (no effect (˜1000+ progeny)) | – | – | –
Fc1ccc(N2CCN(c3nc(NCc4c(F)cccc4F)ns3)CC2)cc1 [compound 296] | 109 | 175 | 96 | L4/AD/B!-Few Eggs | 106 | – | B (low broodsize (25-100 progeny)) | OK (no effect (˜1000+ progeny)) | OK (no effect (˜1000+ progeny)) | < (reduced broodsize (250-500 progeny)) | L4 | Dead | –
CCCCOc1ccc(C(=O)N2CC(OCCCc3ccccc3)CC2C(=O)NCc2ccccc2Br)cc1 (stereo not drawn) [AKC 102] | – | – | – | – | – | – | – | – | – | – | – | – | 5 Day Visual Score V6 [12]: B (low broodsize (25-100 progeny)); 5 Day Visual Score V4 (2.6 μM, C. elegans L1, scored day 5): L3
CC(C)CN(CC(C)C)c1nc(NCc2ccc(C(F)(F)F)cc2)ns1 [compound 311] | 109 | 176 | 98 | L4/AD/B! | 108 | – | – | – | – | – | B! (sterile (0-25 progeny)) | – | 5 Day Visual Score V1 [1]: L1; 5 Day Visual Score V2 [2]: < (reduced broodsize (250-500 progeny)); 5 Day Visual Score V3 [13]: OK (no effect (˜1000+ progeny)); 5 Day Visual Score V4 [3]: OK (no effect (˜1000+ progeny)); 5 Day Visual Score V5 [4]: OK (no effect (˜1000+ progeny)); 5 Day Visual Score V6 [5]: OK (no effect (˜1000+ progeny))
CN(Cc1ccccc1)c1nc(NCc2ccccc2C(F)(F)F)ns1 [compound 323] | 120 | 193 | 110 | L3/L4/AD/B!-Clear | 121 | – | – | – | – | – | L4/AD/B! | – | 5 Day Visual Score V1 [1]: L4#AD/B!; 5 Day Visual Score V3 [13]: OK (no effect (˜1000+ progeny)); 5 Day Visual Score V4 [3]: < (reduced broodsize (250-500 progeny)); 5 Day Visual Score V5 [4]: OK (no effect (˜1000+ progeny)); 5 Day Visual Score V6 [5]: OK (no effect (˜1000+ progeny))
CN(Cc1ccccc1)c1nc(NCc2ccc(C(F)(F)F)cc2)ns1 [compound 315] | 118 | 190 | 112 | – | 123 | – | – | – | – | – | – | – | 5 Day Visual Score V1 [1]: L1; 5 Day Visual Score V4 [3]: ˜B (moderate broodsize (100-250 progeny)); 5 Day Visual Score V5 [4]: OK (no effect (˜1000+ progeny)); 5 Day Visual Score V6 [5]: < (reduced broodsize (250-500 progeny))
CCOc1ccc(C2ON=C(c3ccc(N(C)C)cc3)C2C(=O)NCCc2ccc(F)cc2)cc1 (stereo not drawn) [AKC 123] | – | – | – | – | – | – | – | – | – | – | – | – | 5 Day Visual Score V6 [12]: #AD/˜B; 5 Day Visual Score V1 (70 μM, C. elegans L1, scored day 5): L1
CCCCN(CC)c1nc(NCc2ccc(C(F)(F)F)cc2)ns1 [compound 319] | 127 | 205 | 121 | L2 | 133 | – | – | – | – | – | L2 | – | 5 Day Visual Score V2 [2]: ˜B (moderate broodsize (100-250 progeny)); 5 Day Visual Score V3 [13]: OK (no effect (˜1000+ progeny)); 5 Day Visual Score V4 [3]: OK (no effect (˜1000+ progeny)); 5 Day Visual Score V5 [4]: OK (no effect (˜1000+ progeny)); 5 Day Visual Score V6 [5]: OK (no effect (˜1000+ progeny))
